Experimental data taken from ChEMBL document CHEMBL1201862, “PubChem BioAssay data set” (2004).
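Cultured in 96-well plates, cells were exposed to test compound for 48 hours across five concentrations. At the GI50, growth is halved.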 Active and inactive are the calls of the source. Rule as the data show it: active = GI50 up to about 1.1 µM and inactive = higher.

What was measured:
Assay in all cases: NCI anticancer screen, dose series, 48 h
OVCAR-5 = system: OVCAR-5
NCI-H522 = system: NCI-H522
RPMI-8226 = system: RPMI-8226
OVCAR-8 = system: OVCAR-8
SN12C = system: SN12C
U-251 = system: U-251
HCT-15 = system: HCT-15
Malme-3M = system: Malme-3M
KM12 = system: KM12
CAKI-1 = system: CAKI-1
MDA-MB-435 = system: MDA-MB-435
NCI-H23 = system: NCI-H23
UACC-257 = system: UACC-257
K562 = system: K562
LOX IMVI = system: LOX IMVI
MDA-MB-231 = system: MDA-MB-231
SK-OV-3 = system: SK-OV-3
COLO 205 = system: COLO 205
CCRF-CEM = system: CCRF-CEM

Structure (SMILES) | GI50 (OVCAR-5) | GI50 (NCI-H522) | GI50 (RPMI-8226) | GI50 (OVCAR-8) | GI50 (SN12C) | GI50 (U-251) | GI50 (HCT-15) [µM] | GI50 (Malme-3M) | GI50 (KM12) | GI50 (CAKI-1) | GI50 (MDA-MB-435) | GI50 (NCI-H23) | GI50 (UACC-257) | GI50 (K562) | GI50 (LOX IMVI) | GI50 (MDA-MB-231) | GI50 (SK-OV-3) | GI50 (COLO 205) | GI50 (CCRF-CEM)
C[N+](C)(C)/N=C\c1ccc(O)c(O)c1 | > 100 µM (inactive) | > 100 µM (inactive) | > 100 µM (inactive) | > 100 µM (inactive) | > 100 µM (inactive) | > 100 µM (inactive) | > 100 | > 100 µM (inactive) | > 100 µM (inactive) | > 100 µM (inactive) | > 100 µM (inactive) | > 100 µM (inactive) | > 100 µM (inactive) | > 100 µM (inactive) | > 100 µM (inactive) | > 100 µM (inactive) | > 100 µM (inactive) | > 100 µM (inactive) | > 100 µM (inactive)
Cc1ccc2c(n1)C(=O)c1cc(C)c(C)cc1C2=O | 68.9 µM (inactive) | 20.6 µM (inactive) | > 100 µM (inactive) | 54.3 µM (inactive) | 56.9 µM (inactive) | 27.4 µM (inactive) | 75.9 | 43.1 µM (inactive) | 53.2 µM (inactive) | > 100 µM (inactive) | 85.3 µM (inactive) | > 100 µM (inactive) | 30.4 µM (inactive) | 68.7 µM (inactive) | 68.4 µM (inactive) | 45.6 µM (inactive) | > 100 µM (inactive) | 32 µM (inactive) | > 100 µM (inactive)
COc1ccc(Nc2n[nH]c(NS(=O)(=O)c3cc(C)c(Cl)cc3S)n2)cc1 | > 100 µM (inactive) | > 100 µM (inactive) | > 100 µM (inactive) | > 100 µM (inactive) | > 100 µM (inactive) | > 100 µM (inactive) | > 100 | > 100 µM (inactive) | > 100 µM (inactive) | > 100 µM (inactive) | > 100 µM (inactive) | > 100 µM (inactive) | > 100 µM (inactive) | > 100 µM (inactive) | > 100 µM (inactive) | > 100 µM (inactive) | > 100 µM (inactive) | > 100 µM (inactive) | > 100 µM (inactive)
CC(=O)OC1CCC2(C)C(=CCC3C2CCC2(C)C(C(C)C(=O)O)CCC32)C1 (configuration not stated) | > 100 µM (inactive) | 58.6 µM (inactive) | > 100 µM (inactive) | > 100 µM (inactive) | > 100 µM (inactive) | 88.9 µM (inactive) | 78.5 | > 100 µM (inactive) | 84.7 µM (inactive) | > 100 µM (inactive) | > 100 µM (inactive) | > 100 µM (inactive) | > 100 µM (inactive) | > 100 µM (inactive) | > 100 µM (inactive) | > 100 µM (inactive) | > 100 µM (inactive) | 39.9 µM (inactive) | > 100 µM (inactive)
CC1(C)[C@H]2CC[C@](C)(C2)[C@]1(S)Cc1ccccn1 | 88.9 µM (inactive) | 65.9 µM (inactive) | 21.5 µM (inactive) | 17.5 µM (inactive) | 56.8 µM (inactive) | 14.4 µM (inactive) | 41.7 | 46.1 µM (inactive) | 42.9 µM (inactive) | 57.1 µM (inactive) | 26.3 µM (inactive) | 44.6 µM (inactive) | 25.6 µM (inactive) | 26.3 µM (inactive) | 17.3 µM (inactive) | 37 µM (inactive) | 29.8 µM (inactive) | 34.3 µM (inactive) | 5 µM (inactive)
C[C@H]1CC(=O)[C@@]2(O)C#C/C=C\C#C[C@@H]3Nc4c(cc(O)c5c4C(=O)c4ccccc4C5=O)[C@]24O[C@]314 | 0.0685 µM (active) | 0.0504 µM (active) | 0.00356 µM (active) | 0.0158 µM (active) | 0.00296 µM (active) | 0.00701 µM (active) | 0.0248 | 0.01 µM (active) | 0.0927 µM (active) | < 0.001 µM (active) | 0.0509 µM (active) | 0.00461 µM (active) | 0.00231 µM (active) | 0.0118 µM (active) | 0.0175 µM (active) | 0.0873 µM (active) | 0.0171 µM (active) | 0.0568 µM (active) | 0.00106 µM (active)
O=CN1CCN(C(=O)c2ccc(Cl)c(Cl)c2)C1=S | 16.9 µM (inactive) | 4.93 µM (inactive) | 2.84 µM (inactive) | 15 µM (inactive) | 13.6 µM (inactive) | 12.5 µM (inactive) | 19.3 | 20.5 µM (inactive) | 15.7 µM (inactive) | 14.9 µM (inactive) | 16.6 µM (inactive) | 20.9 µM (inactive) | 17.7 µM (inactive) | 13.8 µM (inactive) | 9.29 µM (inactive) | 14.6 µM (inactive) | 18.9 µM (inactive) | 20 µM (inactive) | 7.13 µM (inactive)
O=C1CC(NCCCNC2CC(=O)c3c(Br)sc(Br)c32)c2c(Br)sc(Br)c21 (configuration not stated) | 2.21 µM (inactive) | 1.25 µM (inactive) | 0.118 µM (active) | 1.66 µM (inactive) | 1.99 µM (inactive) | 1.82 µM (inactive) | 1.71 | 1.98 µM (inactive) | 1.49 µM (inactive) | 2.03 µM (inactive) | 1.39 µM (inactive) | 1.83 µM (inactive) | 2.92 µM (inactive) | 0.879 µM (active) | 1.4 µM (inactive) | 2.19 µM (inactive) | 4.1 µM (inactive) | 2.22 µM (inactive) | 0.238 µM (active)
